{"source": "patent US20140336365A1", "about": "“CDR REGIONS OF MONOCLONAL ANTIBODY THAT ANTAGONIZE SPHINOGOSINE 1-PHOSPHATE AND RELATED METHODS” (priority 2011, published 2014)", "molecules": {"B1": {"name": "EDDbeta7H9: Hybridoma EDDbeta7H9 (ATCC PTA-9973) produces the monoclonal antibody Mab7H9, which binds S1P3 (antibody, V domains shown)", "VL": "DIVMTQSHKFMSTSVGDRVSITCKASQDVSTGVVWYQQKEGQSPKLLIYSASYRYTGVPNRFTGSGSGTDFTFTISGVQAEDLAVYYCQQHYSSPTFGGGTKLEIKRADAAPTVSIFPPSS", "VH": "QVTLKESGPGILQPSQTLSLTCSFSGFSLSTSNMGVGWIRQPSGKGLEWLLHILWNDNKHYNPALKSRLTISKDTYKNQVFLKIANVDTADTATYYCARILYRSNYYVMDYWGQGTSVTVSSAKTTPPSVYPL"}}, "key": {"[1]": {"tested_on": "S1P receptors", "settings": "with the exception of S1P2; by stable internalization; cited from earlier work"}, "[2]": {"tested_on": "tumor transplant model", "settings": "cited from earlier work"}, "[3]": {"tested_on": "MDA-MB-231 cells", "assay": "Cell motility, modified Boyden's chamber assay", "type": "cell-based, human", "settings": "1 μM S1P", "experimental": "Cell motility is determined using a modified Boyden's chamber assay. MDA-MB-231 cells are introduced into the upper wells of collagen-coated chambers in serum-free DMEM and incubated for 30 minutes before the addition of either 1 μM S1P in BSA or BSA alone. At the indicated times, wells are isolated and fixed with 4% paraformaldehyde before non-migrated cells in the upper well are removed with a cotton swab. Membranes are then stained with DAPI to visualize individual migrated cells on the bottom of the membranes. Results shown are the averages of three independent experiments."}, "[4]": {"tested_on": "MDA-MB-231", "assay": "Cell proliferation by BrdU incorporation, MDA-MB-231", "type": "cell-based, human", "experimental": "(§1) The experiment can first be performed in the absence of the antagonist. The effect of S1P on cell proliferation is determined by measuring bromodeoxyuridine (BrdU) incorporation. In this assay, cells are treated with S1P or vehicle control (0.1% fatty acid-free BSA) for 30 minutes before being exposed to a 30-minute BrdU pulse. Cells are then fixed with ethanol, labeled with a biotinylated α-BrdU antibody, incubated with streptavidin-peroxidase, developed with DAB, and counter-stained with hematoxylin. Nuclei of cells in S-phase during the 30-minute pulse are labeled brown, while non-proliferative cells show the blue hematoxylin stain."}, "[5]": {"tested_on": "MDA-MB-231 cells", "assay": "Tamoxifen toxicity, cell viability by phase contrast microscopy", "type": "cell-based, human", "experimental": "The experiment can be performed first without a S1P antagonist. MDA-MB-231 cells are cultured under standard conditions in Dulbecco's Minimal Essential Media supplemented with 10% fetal bovine serum and glutamate. Cells are grown in the absence of serum for 24 hours prior to experimental manipulation. Tamoxifen (Tam) and S1P are added to the media at the indicated concentrations for the indicated times at the appropriate concentrations (e.g., 3 μM Tam, 10 μM Tarn, and 20 μM Tam) for appropriate times (e.g., 6 hrs. and 24 hrs.). Cell viability is observed by direct illumination with an inverted phase contrast microscope.\nThe tamoxifen toxicity experiment can be performed using an antagonist of S1P that binds to S1P3. For example, the antiserum described in Example 1 can be employed. MDA-MB-231 cells are cultured under standard conditions in Dulbecco's Minimal Essential Media supplemented with 10% fetal bovine serum and glutamate. Serum concentration is reduced to 1% for 24 hours prior to experimental manipulation. Tamoxifen and S1P are added to the media at the appropriate concentrations (e.g., 0 μM Tam, 10 μM Tam, and 20 μM Tam) for appropriate times (e.g., 6 hrs. and 24 hrs.). Cell viability is observed by direct illumination with an inverted phase contrast microscope."}, "[6]": {"tested_on": "MDA-MB-231 breast cancer cells", "assay": "S1P-induced cytoskeletal rearrangement / cell rounding (phalloidin staining)", "type": "cell-based, human", "experimental": "MDA-MB-231 breast cancer cells are cultured on collagen-coated coverslips in the presence of 10% FBS using standard techniques. Because S1P is present at high concentrations in serum, BCCs are “serum-starved” in Dulbecco's modified Eagle medium (DMEM) for 12 hours prior to experimental manipulation. S1P is solubilized with bovine serum albumin (BSA) carrier and administered at a final concentration of 1 nM to 1 μM. Coverslips are collected at representative time points such as 10 minutes, 1 hr., 2 hrs., 4 hrs., and 6 hrs., fixed with 4% paraformaldehyde, and stained with rhodamine-conjugated phalloidin to label cytoskeletal actin.\nThe cell rounding experiment can be performed using an antagonist of S1P that binds to S1P3. For example, the antiserum described in Example 1 can be employed. Serum-starved MDA-MB-231 cells are incubated with preimmune serum or S1P3-reactive antiserum for 15 minutes prior to a 30-minute exposure to 10 nM S1P, then evaluated for response both in % cells responding and average cell area.\nMDA-MB-231 cells are grown under standard culture conditions and serum starved for 24 hours prior to experimental manipulation. S1P3 antiserum or pre-immune serum obtained from the same rabbit is added to the media at a final concentration of 1:10,000 as indicated. 15 minutes later, S1P is added to the media to a final concentration of 10 nM. 30 minutes after S1P administration, cells are fixed with 4% paraformaldehyde, stained with rhodamine-conjugated phalloidin, and visualized with fluorescence microscopy. Rounded cells are counted by an experimenter blinded to the identity of the sample. Cell area is determined by quantification with ImageJ software."}, "[7]": {"tested_on": "MCF-7 cells", "assay": "Cell death by annexin V assay (FACS)", "type": "cell-based, human", "settings": "for % Annexin positive cells: overnight", "experimental": "Quantification of cell death can be performed with an annexin V assay. […] of 500 nM S1P, then collected by trypsinization, and labeled with Alexafluor 488-conjugated annexin V (Invitrogen Corp, Carlsbad, Calif.) per manufacturer's protocol. Cells can be counted on a FACSAria cell sorting system and analyzed with FACSDiva software (BD Biosciences, San Jose, Calif.). […] This effect is attenuated by co-administration of 500 nM S1P."}, "[8]": {"tested_on": "MCF-7", "assay": "Cell proliferation by BrdU incorporation, MCF-7", "type": "cell-based, human", "experimental": "as §1"}, "[9]": {"target": "T1, S1P3 (Homo sapiens, UniProt Q99500)", "T1 construct": "expressed in transfected cells; host or cells: HEK293 (pcDNA3.1)", "T1 sequence (Q99500 whole entry, the tested form may be a part)": "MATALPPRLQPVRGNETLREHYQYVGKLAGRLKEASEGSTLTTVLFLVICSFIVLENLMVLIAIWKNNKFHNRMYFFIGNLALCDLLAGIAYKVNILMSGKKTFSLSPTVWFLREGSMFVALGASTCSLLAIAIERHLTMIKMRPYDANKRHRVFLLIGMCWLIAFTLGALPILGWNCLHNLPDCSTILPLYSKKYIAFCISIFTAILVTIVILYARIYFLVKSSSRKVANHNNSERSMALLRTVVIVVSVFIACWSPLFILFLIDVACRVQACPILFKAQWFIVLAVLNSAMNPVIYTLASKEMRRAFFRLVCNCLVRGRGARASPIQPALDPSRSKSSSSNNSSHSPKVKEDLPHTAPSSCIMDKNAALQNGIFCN", "assay": "Immunocytochemistry of hybridoma supernatants on HEK293 cells expressing tagged S1P3", "type": "binding", "settings": "HEK293 cells expressing S1P3 fused to V5 or EGFP", "description": "A synthetic peptide is synthesized with the amino acid sequence: KKTFSLSPTVWFLREG. This sequence corresponds to the extra-cellular loop between transmembrane domains 2 and 3 of cell surface receptor S1P3. This peptide is conjugated to keyhole limpet hemocyanin (KLH) and used for the immunization of 5 balb/c mice. Production of specific antibodies is confirmed by immunocytochemistry. HEK293 cells are transiently transfected with a mammalian expression vector (pcDNA3.1) encoding the full-length S1P3 protein fused to either a V5 epitope or enhanced green fluorescent protein (EGFP) on its C-terminal end. After 16-36 hours, cells are fixed with 4% paraformaldehyde, blocked with BSA, and exposed to antiserum from immunized mice (dilutions of 1:10, 1:25, 1:50, 1:100, 1:250, 1:500, 1:1,000, 1:2,000, 1:5,000), or supernatants from hybridoma cultures. […] Binding of antibodies from serum or supernatants is detected with a Cy3-conjugated secondary antibody. Specificity of binding is evaluated by coincidence of this signal with green fluorescence, either from the expressed EGFP fusion protein or from secondary antibody bound to the expressed V5 epitope.\nMice are immunized with KLH-conjugated peptide at regular intervals and evaluated by enzyme-linked immunosorbent assay (ELISA) and immunocytochemistry until sera are identified that contain specific antibodies (2-3 months). […]"}}, "data": [{"molecule": "CCCCCCCCc1ccc(CCC(N)(CO)CO)cc1", "note": "[FTY720]", "values": [{"measurement": "Inhibition of S1P receptors", "setting": "[1]", "value": "effectively inhibit four of the five known receptors"}, {"measurement": "Effect on angiogenesis and tumor growth", "setting": "[2]", "value": "inhibit angiogenesis and subsequent growth"}]}, {"molecule": "CCCCCCCCCCCCC/C=C/[C@@H](O)[C@@H](N)COP(=O)(O)O", "note": "[S1P, Sphingosine 1-phosphate]", "values": [{"measurement": "Effect on cell motility compared to vehicle control, in words", "setting": "[3]", "value": "rapid and significant increase in cell motility"}, {"measurement": "Cell migration (migrated cells)", "setting": "[3]; 1 hours", "value": 672.5, "unit": "Cells/mm^2"}, {"measurement": "Cell migration (migrated cells)", "setting": "[3]; 2 hours", "value": 900, "unit": "Cells/mm^2"}, {"measurement": "Cell migration (migrated cells)", "setting": "[3]; 4 hours", "value": 1385, "unit": "Cells/mm^2"}, {"measurement": "Increase in migrated cells compared to vehicle control", "setting": "[3]; two hour time point", "value": "nearly two-fold increase"}, {"measurement": "Increase in migrated cells compared to vehicle control", "setting": "[3]; within one hour", "value": 74, "unit": "%"}, {"measurement": "Effect on mitosis (BrdU incorporation), in words", "setting": "[4]", "value": "dose-dependent increase in mitosis"}, {"measurement": "Mitosis by BrdU incorporation", "setting": "[4]; 10 nM S1P", "value": 71, "unit": "%"}, {"measurement": "Mitosis by BrdU incorporation", "setting": "[4]; 100 nM S1P", "value": 84, "unit": "%"}, {"measurement": "Mitosis by BrdU incorporation", "setting": "[4]; 1 μM S1P", "value": 88, "unit": "%"}, {"measurement": "Cell viability under tamoxifen with S1P", "setting": "[5]; 1 μM S1P with 10 or 20 μM tamoxifen, 6 hours, serum-free", "value": "many viable cells remain"}, {"measurement": "Survival under tamoxifen with S1P", "setting": "[5]; S1P with 3 or 10 μM tamoxifen, 24 hour, serum-free", "value": "markedly improves survival"}, {"measurement": "Cell shape change", "setting": "[6]; 1 nM S1P", "value": "minor cell shape changes"}, {"measurement": "Cell shape change", "setting": "[6]; 10 nM S1P", "value": "dramatic cell rounding"}, {"measurement": "% Rounded Cells Following S1P Treatment", "setting": "[6]; 10 nM S1P, 30 min, no serum", "value": 64, "unit": "%"}, {"measurement": "Average Cell Area Following S1P Treatment", "setting": "[6]; 10 nM S1P, 30 min, no serum", "value": 960.4, "unit": "μm^2"}, {"measurement": "Cells with marked cytoskeletal rearrangement", "setting": "[6]; 1 μM S1P, within 10 minutes", "value": "> 90", "unit": "%"}, {"measurement": "% Annexin positive cells", "setting": "[7]; 500 nM S1P with 10 μM Tamoxifen", "value": 15.9, "unit": "%"}, {"measurement": "% Annexin positive cells", "setting": "[7]; 500 nM S1P with 20 μM Tamoxifen", "value": 20.2, "unit": "%"}, {"measurement": "% Annexin positive cells", "setting": "[7]; 500 nM S1P, 0 Tamoxifen", "value": 6.2, "unit": "%"}, {"measurement": "Effect on tamoxifen-induced annexin V binding, in words", "setting": "[7]; co-administration of 500 nM S1P", "value": "attenuated"}, {"measurement": "Effect on mitosis (BrdU incorporation), in words", "setting": "[8]", "value": "dose-dependent increase in mitosis"}, {"measurement": "Mitosis by BrdU incorporation", "setting": "[8]; 10 nM S1P", "value": 49, "unit": "%"}, {"measurement": "Mitosis by BrdU incorporation", "setting": "[8]; 100 nM S1P", "value": 45, "unit": "%"}, {"measurement": "Mitosis by BrdU incorporation", "setting": "[8]; 1 μM S1P", "value": 61, "unit": "%"}]}, {"molecule": "CC/C(=C(\\c1ccccc1)c1ccc(OCCN(C)C)cc1)c1ccccc1", "note": "[Tamoxifen]", "values": [{"measurement": "Cell viability", "setting": "[5]; 3 μM tamoxifen, 24 hour, serum-free", "value": "most control cells are lost"}, {"measurement": "Cell viability", "setting": "[5]; 10 μM Tam, 6 hours, 1% FBS", "value": "appear normal"}, {"measurement": "Cell viability", "setting": "[5]; 10 μM tamoxifen, 6 hours, serum-free", "value": "only a few viable cells remain"}, {"measurement": "Cell viability", "setting": "[5]; 10 μM tamoxifen, 24 hour, serum-free", "value": "cell death is complete"}, {"measurement": "Cell viability", "setting": "[5]; 20 μM Tam, 6 hours, 1% FBS", "value": "begin to show evidence of cell death"}, {"measurement": "Cell viability", "setting": "[5]; 20 μM tamoxifen, 6 hours, serum-free", "value": "all cells are dead/dying"}, {"measurement": "% Annexin positive cells", "setting": "[7]; 10 μM Tamoxifen, BSA (no S1P)", "value": 20.1, "unit": "%"}, {"measurement": "% Annexin positive cells", "setting": "[7]; 20 μM Tamoxifen, BSA (no S1P)", "value": 28.9, "unit": "%"}, {"measurement": "Effect on annexin V binding (apoptotic cell death), in words", "setting": "[7]; overnight treatment with tamoxifen", "value": "increase in annexin V binding"}]}, {"molecule": "B1", "values": [{"measurement": "Presence of specific antibodies in hybridoma supernatant by immunocytochemistry", "setting": "[9]", "value": "positive"}]}]}
